Source: ChEMBL document CHEMBL5247596, “SAR studies toward discovery of emvododstat (PTC299), a potent dihydroorotate dehydrogenase (DHODH) inhibitor” (Eur J Med Chem, 2022)

Legend:
[1] = tested on: MOLM-13; test: Cytotoxicity against human MOLM-13 cells assessed as reduction of cell viability incubated for 3 days by CellTiter-Glo assay; format: functional, cell-based; conditions: MOLM-13, 72 h; for CC50: time 3 day
[2] = Metabolic stability in mouse liver microsomes assessed as intrinsic clearance at 1 uM incubated upto 60 mins in presence of NADP by LC-MS analysis; format: ADME, Microsome; conditions: read-out: CLH
[3] = target: Dihydroorotate dehydrogenase (quinone), mitochondrial (Homo sapiens, UniProt Q02127); test: Inhibition of DHODH in human HeLa cells assessed as reduction in hypoxia-induced VEGF expression incubated for 48 hrs by ELISA assay; format: cell-based
Dihydroorotate dehydrogenase (quinone), mitochondrial, sequence (Q02127 whole entry): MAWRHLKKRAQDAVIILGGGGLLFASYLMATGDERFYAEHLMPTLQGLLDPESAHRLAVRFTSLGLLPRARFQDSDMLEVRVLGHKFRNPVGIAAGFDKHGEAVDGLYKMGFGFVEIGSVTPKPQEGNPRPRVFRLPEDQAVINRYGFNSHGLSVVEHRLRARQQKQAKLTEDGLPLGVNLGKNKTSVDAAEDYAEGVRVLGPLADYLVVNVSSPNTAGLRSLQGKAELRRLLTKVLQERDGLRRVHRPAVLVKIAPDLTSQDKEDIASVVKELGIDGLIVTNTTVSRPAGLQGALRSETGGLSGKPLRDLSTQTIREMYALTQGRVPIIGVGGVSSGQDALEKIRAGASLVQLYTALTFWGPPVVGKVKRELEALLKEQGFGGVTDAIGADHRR

[4] = AUC([…]) in mouse at 10 mg/kg, po administered via gavage measured upto 24 hrs by LC/MS-MS analysis; format: ADME, organism-based; parameters: dose 10 mg/kg, time < 24 hrs, route po; conditions: in vivo
[5] = Toxicity in CHO cells assessed as chromosomal aberration; format: cell-based, Cricetulus griseus; conditions: chinese hamster
[6] = Oral bioavailability in Beagle dog at 3 mg/kg by LC-MS/MS analysis; format: ADME, organism-based, Canis lupus familiaris; conditions: in vivo
[7] = Oral bioavailability in Sprague-Dawley rat at 3 mg/kg by LC-MS/MS analysis; format: ADME, organism-based; conditions: in vivo
[8] = target: Voltage-gated inwardly rectifying potassium channel KCNH2 (Homo sapiens, UniProt Q12809); test: Inhibition of hERG (unknown origin); format: toxicity
Voltage-gated inwardly rectifying potassium channel KCNH2, sequence (Q12809 whole entry): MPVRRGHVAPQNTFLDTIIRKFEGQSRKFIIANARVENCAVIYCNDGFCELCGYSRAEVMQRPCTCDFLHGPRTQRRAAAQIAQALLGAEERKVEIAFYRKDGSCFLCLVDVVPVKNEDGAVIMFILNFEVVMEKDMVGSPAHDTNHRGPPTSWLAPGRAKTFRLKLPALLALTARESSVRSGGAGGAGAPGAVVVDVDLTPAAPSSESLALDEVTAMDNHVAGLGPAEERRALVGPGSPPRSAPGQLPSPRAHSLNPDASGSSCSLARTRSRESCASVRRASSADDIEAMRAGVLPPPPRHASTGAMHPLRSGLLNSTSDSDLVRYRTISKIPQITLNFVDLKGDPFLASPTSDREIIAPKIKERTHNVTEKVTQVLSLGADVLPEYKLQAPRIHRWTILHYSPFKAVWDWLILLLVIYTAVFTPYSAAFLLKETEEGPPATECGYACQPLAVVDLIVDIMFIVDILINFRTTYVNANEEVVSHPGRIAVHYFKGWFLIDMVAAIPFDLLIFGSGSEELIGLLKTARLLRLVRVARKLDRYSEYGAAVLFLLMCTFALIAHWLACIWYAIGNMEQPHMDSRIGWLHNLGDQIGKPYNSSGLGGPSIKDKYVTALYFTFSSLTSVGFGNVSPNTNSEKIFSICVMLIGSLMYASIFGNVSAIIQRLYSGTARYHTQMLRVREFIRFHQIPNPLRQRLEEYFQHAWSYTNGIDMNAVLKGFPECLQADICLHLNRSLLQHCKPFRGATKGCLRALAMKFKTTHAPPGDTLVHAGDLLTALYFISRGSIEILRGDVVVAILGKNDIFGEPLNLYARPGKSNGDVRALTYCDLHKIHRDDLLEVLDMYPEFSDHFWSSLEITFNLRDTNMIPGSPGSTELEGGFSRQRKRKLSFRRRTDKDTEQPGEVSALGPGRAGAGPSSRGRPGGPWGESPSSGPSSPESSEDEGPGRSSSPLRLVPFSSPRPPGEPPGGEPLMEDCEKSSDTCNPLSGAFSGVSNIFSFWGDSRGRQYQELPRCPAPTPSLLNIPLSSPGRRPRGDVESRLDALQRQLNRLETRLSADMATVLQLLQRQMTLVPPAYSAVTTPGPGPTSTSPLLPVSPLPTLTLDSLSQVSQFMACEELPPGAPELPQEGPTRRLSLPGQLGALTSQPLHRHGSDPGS

[9] = Genotoxicity in Salmonella typhimurium by Ames test; format: toxicity; conditions: salmonella enterica subsp. enterica serovar typhimurium
[10] = Toxicity in po dosed rat bone marrow by micronucleus assay; format: organism-based; conditions: in vivo
[11] = tested on: HT-1080; test: Antitumor activity against human HT-1080 cells xenografted in mouse assessed as tumor growth inhibition at 50 mg/kg, po bid measured for 14 days relative to control; format: functional; conditions: HT-1080, 336 h, time 14 day, read-out: TGI
[12] = tested on: HT-1080; test: Antitumor activity against human HT-1080 cells xenografted in mouse assessed as tumor growth inhibition at 10 mg/kg, po bid measured for 14 days relative to control; format: functional; conditions: HT-1080, 336 h, time 14 day, read-out: TGI
[13] = tested on: HT-1080; test: Antitumor activity against human HT-1080 cells xenografted in mouse assessed as tumor growth inhibition at 10 mg/kg, po bid measured for 21 days relative to control; format: functional; conditions: HT-1080, 504 h, time 21 day, read-out: TGI
[14] = tested on: HT-1080; test: Antitumor activity against human HT-1080 cells xenografted in mouse assessed as tumor growth inhibition at 2 mg/kg, po bid measured for 21 days relative to control; format: functional; conditions: HT-1080, 504 h, time 21 day, read-out: TGI

Row | SMILES | CC50 [1] | other results
1 | CCOC(=O)N1CCc2c([nH]c3ccc(Cl)cc23)C1Cc1ccccc1 (stereo not given) | > 1000 nM | –
2 | CCOC(=O)N1CCc2c([nH]c3cccc(F)c23)C1c1ccc(OC)cc1 (stereo not given) | > 1000 nM | –
3 | COc1ccc(C2c3[nH]c4ccc(Cl)cc4c3CCN2C(=O)Oc2ccccc2)cc1 (stereo not given) | 34 nM | CLint scaled at 1 µM [2]: 22 mL/min/kg
4 | COc1ccc([C@H]2c3[nH]c4ccc(Cl)cc4c3C[C@@H]3C(=O)N(C4CCCCC4)C(=S)N23)cc1 | – | EC50 [3]: 1 nM
5 | COc1ccc(C2c3[nH]c4ccc(Cl)cc4c3CCN2C(=O)Oc2ccccc2F)cc1 (stereo not given) | 59 nM | –
6 | CCOC(=O)N1CCc2c([nH]c3ccc(Cl)cc23)C1c1cccc(Cl)c1 (stereo not given) | 34 nM | CLint scaled at 1 µM [2]: 143 mL/min/kg
7 | COc1ccc(C2c3[nH]c4ccc(Cl)cc4c3CCN2C(=O)Oc2cccc(C)c2)cc1 (stereo not given) | 77 nM | –
8 | COc1ccc(C2NCCc3c2[nH]c2ccccc32)cc1 (stereo not given) | > 30000 nM | –
9 | COc1ccc(OC(=O)N2CCc3c([nH]c4ccc(Cl)cc34)C2c2ccc(OC)cc2)cc1 (stereo not given) | 73 nM | –
10 | CCCOC(=O)N1CCc2c([nH]c3ccc(Cl)cc23)C1c1ccc(OC)cc1 (stereo not given) | 23 nM | –
11 | COC(=O)N1CCc2c([nH]c3ccc(Cl)cc23)C1c1ccc(OC)cc1 (stereo not given) | 40 nM | CLint scaled at 1 µM [2]: 174 mL/min/kg
12 | COc1ccc(C2c3[nH]c4ccc(Cl)cc4c3CCN2c2ccccc2)cc1 (stereo not given) | 133 nM | –
13 | COc1ccc(C2NCCc3c2[nH]c2ccc(Cl)cc32)cc1 (stereo not given) | 1200 nM | –
14 | COc1ccc(C2c3[nH]c4ccc(Cl)cc4c3CCN2C(=O)OC2CCCC2)cc1 (stereo not given) | 36 nM | –
15 | CCOC(=O)N1CCc2c([nH]c3ccc(Cl)cc23)C1c1ccc(Cl)cc1 (stereo not given) | 19 nM | CLint scaled at 1 µM [2]: 221 mL/min/kg; AUC(0-t) at 24 h [4]: 550 ng·h/mL
16 | CCOC(=O)N1CCc2c([nH]c3c(C)cccc23)C1c1ccc(OC)cc1 (stereo not given) | > 1000 nM | –
17 | CCOC(=O)N1CCc2c([nH]c3ccc(F)cc23)C1c1ccc(OC)cc1 (stereo not given) | 433 nM | –
18 | COc1ccc(C2c3[nH]c4ccc(C)cc4c3CCN2C(=O)Oc2ccc(Cl)cc2)cc1 (stereo not given) | 62 nM | –
19 | COc1ccc(C2c3[nH]c4ccc(Cl)cc4c3CCN2C(=O)Oc2cccnc2)cc1 (stereo not given) | 117 nM | –
20 | COc1ccc(C2c3[nH]c4ccc(Cl)cc4c3CCN2C(=O)Oc2cccc(F)c2)cc1 (stereo not given) | 27 nM | –
21 | COc1ccc(C2c3[nH]c4ccc(Cl)cc4c3CCN2C(=O)OCCF)cc1 (stereo not given) | 37 nM | CLint scaled at 1 µM [2]: 227 mL/min/kg
22 | COc1ccc(C2c3[nH]c4ccc(Cl)cc4c3CCN2C(=O)OC2CCC2)cc1 (stereo not given) | 28 nM | –
23 | COc1ccc(C2c3[nH]c4ccc(Cl)cc4c3CCN2C(=O)Oc2cncnc2)cc1 (stereo not given) | 74 nM | –

Row | SMILES | CC50 [1] | other results
24 | CCN(CC)C(=O)N1CCc2c([nH]c3ccc(Cl)cc23)C1c1ccc(OC)cc1 (stereo not given) | > 1000 nM | –
25 | CCOC(=O)N1CCc2c([nH]c3ccc(Cl)cc23)C1c1cccc(F)c1 (stereo not given) | 53 nM | CLint scaled at 1 µM [2]: 151 mL/min/kg
26 | COc1ccc(C2c3[nH]c4ccc(Cl)cc4c3CCN2C(C)=O)cc1 (stereo not given) | 274 nM | –
27 | COc1ccc([C@H]2c3[nH]c4ccc(Cl)cc4c3CCN2C(=O)Oc2ccc(Cl)cc2)cc1 [EMVODODSTAT] | 6 nM | Activity [5]: Non-Toxic; bioavailability [6]: 8%; bioavailability [7]: 119%; inhibition (INH) [8]: Not Active; Activity [9]: Non-Toxic; Activity [10]: Non-Toxic
28 | COCCOC(=O)N1CCc2c([nH]c3ccc(Cl)cc23)C1c1ccc(OC)cc1 (stereo not given) | 81 nM | CLint scaled at 1 µM [2]: 365 mL/min/kg
29 | CCOC(=O)N1CCc2c([nH]c3ccc(Cl)cc23)C1c1ccccc1OC (stereo not given) | 192 nM | –
30 | COc1ccc(C2c3[nH]c4ccc(Cl)cc4c3CCN2C(=O)Oc2ccccc2Cl)cc1 (stereo not given) | 126 nM | –
31 | CCOC(=O)N1CCc2c([nH]c3ccc(Cl)cc23)C1c1ccccc1F (stereo not given) | 36 nM | –
32 | CCOC(=O)N1CCc2c([nH]c3ccc(Cl)cc23)C1c1ccccc1 (stereo not given) | 52 nM | CLint scaled at 1 µM [2]: 92 mL/min/kg
33 | CCOC(=O)N1CCc2c([nH]c3c(F)cccc23)C1c1ccc(OC)cc1 (stereo not given) | > 1000 nM | –
34 | COc1ccc(C2c3[nH]c4ccc(Cl)cc4c3CCN2C(=O)OC2CCCCC2)cc1 (stereo not given) | 41 nM | –
35 | COc1ccc([C@H]2c3[nH]c4ccccc4c3C[C@@H]3C(=O)N(C4CCCCC4)C(=S)N23)cc1 | – | EC50 [3]: 680 nM
36 | CCOC(=O)N1CCc2c([nH]c3ccc(Cl)cc23)C1c1ccc(OC)cc1 (stereo not given) | 25 nM | CLint scaled at 1 µM [2]: 190 mL/min/kg; AUC(0-t) at 24 h [4]: 580 ng·h/mL; inhibition in vivo at 50 mg/kg [11]: 52%; inhibition in vivo at 10 mg/kg [12]: 2%
37 | CCOC(=O)N1CCc2c([nH]c3ccc(Br)cc23)C1c1ccc(OC)cc1 (stereo not given) | 11 nM | –
38 | COc1ccc([C@@H]2c3[nH]c4ccc(Cl)cc4c3CCN2C(=O)Oc2ccc(Cl)cc2)cc1 | > 1000 nM | –
39 | COc1ccc(C2c3[nH]c4ccc(Cl)cc4c3CCN2C(=O)OC2CC2)cc1 (stereo not given) | 37 nM | –
40 | CCOC(=O)N1CCc2c([nH]c3ccc(Cl)cc23)C1c1ccccc1Cl (stereo not given) | 384 nM | –
41 | COc1ccc(C2c3[nH]c4cc(Cl)ccc4c3CCN2C(=O)Oc2ccc(Cl)cc2)cc1 (stereo not given) | 306 nM | –
42 | CCNC(=O)N1CCc2c([nH]c3ccc(Cl)cc23)C1c1ccc(OC)cc1 (stereo not given) | 929 nM | –
43 | COc1ccc(C2NCCc3c2[nH]c2ccc(Br)cc32)cc1 (stereo not given) | 920 nM | –
44 | COc1ccc(C2c3[nH]c4cccc(Cl)c4c3CCN2C(=O)Oc2ccc(Cl)cc2)cc1 (stereo not given) | 389 nM | –
45 | CCOC(=O)N1CCc2c([nH]c3ccc(Cl)cc23)C1C1CCCCC1 (stereo not given) | 119 nM | –
46 | COc1ccc(C2c3[nH]c4ccc(Cl)cc4c3CCN2C)cc1 (stereo not given) | 337 nM | –

Row | SMILES | CC50 [1] | other results
47 | CCN1CCc2c([nH]c3ccc(Cl)cc23)C1c1ccc(OC)cc1 (stereo not given) | 278 nM | –
48 | CCOC(=O)N1CCc2c([nH]c3ccc(C#N)cc23)C1c1ccc(OC)cc1 (stereo not given) | 284 nM | –
49 | COc1ccc(C2c3[nH]c4ccc(Cl)cc4c3CCN2C(=O)Oc2cccc(Cl)c2)cc1 (stereo not given) | 13 nM | –
50 | CCOC(=O)N1CCc2c([nH]c3ccc(Cl)cc23)C1c1ccc(F)cc1 (stereo not given) | 36 nM | AUC(0-t) at 24 h [4]: 200 ng·h/mL
51 | COc1ccc(C2c3[nH]c4ccc(Cl)cc4c3CCN2S(=O)(=O)c2ccccc2)cc1 (stereo not given) | > 1000 nM | –
52 | COc1ccc(C2c3[nH]c4ccc(Cl)cc4c3CCN2C(=O)OC(C)C)cc1 (stereo not given) | 37 nM | –
53 | O=C(Oc1ccc(Cl)cc1)N1CCn2c(cc3ccc(Cl)cc32)C1c1ccccc1 (stereo not given) | – | EC50 [1]: > 1000 nM
54 | CCOC(=O)N1CCc2c([nH]c3ccc(Cl)cc23)C1C (stereo not given) | > 1000 nM | –
55 | CCOC(=O)N1CCc2c([nH]c3ccccc23)C1c1ccc(OC)cc1 (stereo not given) | > 1000 nM | –
56 | CCOC(=O)N1CCc2c([nH]c3ccc(Cl)cc23)C1c1cccc(OC)c1 (stereo not given) | 48 nM | –
57 | CCOC(=O)N1CCc2c([nH]c3ccc(OC)cc23)C1c1ccc(OC)cc1 (stereo not given) | 215 nM | –
58 | COc1ccc(C2c3[nH]c4ccc(Cl)cc4c3CCN2C(=O)Oc2ccc(C)cc2)cc1 (stereo not given) | 31 nM | CLint scaled at 1 µM [2]: < 5 mL/min/kg; AUC(0-t) at 24 h [4]: 2200 ng·h/mL
59 | COc1ccc(C2c3[nH]c4ccc(Cl)cc4c3CCN2C(=O)Oc2ccc(F)cc2)cc1 (stereo not given) | 26 nM | –
60 | COc1ccc(C2c3[nH]c4ccc(Cl)cc4c3CCN2C(=O)Oc2ccc(Cl)cc2)cc1 (stereo not given) | 12 nM | CLint scaled at 1 µM [2]: < 5 mL/min/kg; AUC(0-t) at 24 h [4]: 8600 ng·h/mL; inhibition in vivo at 10 mg/kg [13]: 82%; inhibition in vivo at 2 mg/kg [14]: 63%
61 | COc1ccc(C2c3[nH]c4ccc(Cl)cc4c3CCN2C=O)cc1 (stereo not given) | 325 nM | –
62 | Brc1ccc2[nH]c3c(c2c1)CCCC3n1cccc1 (stereo not given) | – | EC50 [3]: 13 nM
63 | COc1ccc(C2c3[nH]c4ccc(Cl)cc4c3CCN2C(=O)Oc2ccccc2C)cc1 (stereo not given) | 225 nM | –
64 | COc1ccc(C2c3c(c4cc(Cl)ccc4n3C)CCN2C(=O)Oc2ccc(Cl)cc2)cc1 (stereo not given) | – | EC50 [1]: > 1000 nM
65 | CCNC(=S)N1CCc2c([nH]c3ccc(Cl)cc23)C1c1ccc(OC)cc1 (stereo not given) | 477 nM | –
66 | CCOC(=O)N1CCc2c([nH]c3cc(F)ccc23)C1c1ccc(OC)cc1 (stereo not given) | > 1000 nM | –
67 | COc1ccc(C2c3[nH]c4ccc(Cl)cc4c3CCN2Cc2ccccc2)cc1 (stereo not given) | 265 nM | –
68 | COc1ccc(C2c3[nH]c4ccc(Cl)cc4c3CCN2C(=O)OC(C)(C)C)cc1 (stereo not given) | 39 nM | –
69 | COc1ccc([C@H]2c3[nH]c4ccc(Br)cc4c3C[C@@H]3C(=O)N(C4CCCCC4)C(=S)N23)cc1 | – | EC50 [3]: 3 nM
